Measured values as given in article PMC8621857, “Structural Insights into the Azole Resistance of the Candida albicans Darlington Strain Using Saccharomyces cerevisiae Lanosterol 14α-Demethylase as a Surrogate” (Journal of Fungi, 2021).
pKd: −log10 of the molar value. Like-named read-outs stand apart in the source and are kept apart here. Starred links: 1 amine or outer side, 2 acyl side, 3 side chain; linkers in the order of their positions; H or OH if unused. Positions of bridges follow the written chain, without caps; N, C: chain ends. Non-standard residues stand in square brackets, D forms with d. Residues, ends and D or L forms follow the SMILES beside them. *: point of attachment. hTyr(3S-OH,4S-OH,3'-OSO3H) = N[C@H](C(=O)O)[C@H](O)[C@@H](O)c1ccc(O)c(OS(=O)(=O)O)c1; Orn(4R-OH,5R-OH) = O=C([C@H](C[C@@H](O)[C@@H](O)N[*:3])N[*:1])[*:2]; Pro(3S-OH,4S-Me) = C[C@H]1CN[C@H](C(=O)O)[C@H]1O; X1 = CCCCCOc1ccc(-c2cc(-c3ccc(C(=O)*)cc3)no2)cc1; Gln(3R-OH) = NC(=O)C[C@@H](O)[C@H](N)C(=O)O; Hyp = O=C(O)[C@@H]1C[C@@H](O)CN1

Assays:
[1] = test system: Phakopspora pachyrhizi SDM Y131F I475T isolates; set-up: method as in PMID 23589453; conditions: isolates from soybean plants in Brazil; cited from earlier work
[2] = test system: S. cerevisiae test and control strains (AD2Δ, AD3Δ and mutants); experiment: Broth microdilution MIC80, comparison across the various cell types tested; assay type: cell-based, Saccharomyces cerevisiae; conditions: p > 0.05
Experimental: (§1) Azole susceptibility was measured as the mean drug concentration required to inhibit 80% of yeast growth (MIC80) compared to a non-drug control, using a standard broth microdilution assay. Serial dilutions of short- (FLC and VCZ), medium- (VT-1161), and long-tailed (ITC and PCZ) azole drugs, and the control drugs micafungin (MCF) and amphotericin B (AMB), were prepared in a 96-well microtiter plate in complete synthetic media lacking uracil, buffered to pH 6.8 [34]. Control and test cells were seeded at an optical density of 600 nm (OD600) of 0.005 (~1.5 × 10^4 colony forming units). After incubation for 48 h at 30 °C with constant agitation (200 rpm), the OD600 nm of each well was measured using a Synergy 2 multi-mode plate reader (BioTek Instruments, Winooski, VT, USA). The experiment was repeated three times (a total of nine measurements for the response of each strain to each drug). GraphPad Prism 5.0 software was used for statistical analysis, using a one-way analysis of variance with a Bonferroni post-hoc test. The statistical significance of comparisons was accepted when p < 0.05.

[3] = test system: S. cerevisiae strain AD3Δ ScErg11 Y140H I471T expressing ScLDM6×His Y140H I471T; experiment: Broth microdilution drug susceptibility assay (MIC80), strain AD3Δ ScErg11 Y140H I471T; assay type: cell-based, Saccharomyces cerevisiae
Experimental: (§2) The native ScERG11 gene in yeast cells containing mutant ScERG11-6×His constructs in the PDR5 locus was disrupted by homologous recombination with a cassette encoding the His1 selection marker and sequences homologous with the regions bordering the endogenous ScERG11 ORF to create strains AD3Δ ScErg11 Y140H, AD3Δ ScErg11 I471T and AD3Δ ScErg11Y140H I471T [43]. Transformants were selected on SD-His agar plates incubated at 30 °C for 48–72 h. Genomic DNA was extracted, and DNA sequencing as above was used to confirm deletion of the native ERG11. Strain AD3Δ ScErg11 (denoted as AD3Δ), which overexpresses wild-type ScLDM6×His from the PDR5 locus and has the native ScERG11 gene disrupted, was used as a control strain [43].
as §1

[4] = test system: S. cerevisiae strain AD2Δ (native wild-type ScLDM); experiment: Broth microdilution drug susceptibility assay (MIC80), host strain AD2Δ; assay type: cell-based; conditions: Saccharomyces cerevisiae, 48 h, pH 6.8
Experimental: Yeast strains used in this study (Supplementary Table S1) were prepared using the AD2Δ strain of S. cerevisiae as a host, using an established protocol. AD2Δ is hypersensitive to xenobiotics due to the deletion of seven major ABC transporters, including those responsible for the efflux of azole drugs. It is also deleted of the PDR3 transcriptional regulator, but contains the gain-of-function Pdr1-3 transcriptional regulator mutation that leads to constitutive overexpression from the PDR5 locus.
as §1

[5] = test system: S. cerevisiae strain AD3Δ ScErg11 (AD3Δ) overexpressing wild-type ScLDM6×His; experiment: Broth microdilution drug susceptibility assay (MIC80), strain AD3Δ ScErg11; assay type: cell-based, Saccharomyces cerevisiae; conditions: for MIC80: Saccharomyces cerevisiae, 48 h, pH 6.8; for effect of ScLDM6×His overexpression on susceptibility to control antifungals: strain AD3Δ vs AD2Δ
Experimental: as §2, §1

[6] = test system: C. albicans Darlington strain; experiment: Agarose disk diffusion assay, Darlington strain; assay type: cell-based, Candida albicans; conditions: for agarose diffusion susceptibility: no efflux pump inhibitor
Experimental: (§3) Agarose diffusion assays were carried out as described previously using the Darlington strain of C. albicans (Pfizer Ltd., Sandwich, UK) and the control C. albicans database strain SC5314, which is not resistant to azoles. The Cdr1p-specific inhibitor RC21v3 and the CaMdr1p-specific inhibitor MCC1189 (MicroCombiChem, Wiesbaden, Germany), included in the assay medium at 6 µM, were used to investigate the contribution of efflux pumps to azole resistance in the Darlington strain [49, 50, 51].

[7] = test system: S. cerevisiae strain AD3Δ ScErg11 I471T expressing ScLDM6×His I471T; experiment: Broth microdilution drug susceptibility assay (MIC80), strain AD3Δ ScErg11 I471T; assay type: cell-based, Saccharomyces cerevisiae; conditions: for MIC80: Saccharomyces cerevisiae, 48 h, 30 °C, pH 6.8, mean (± SEM), n = 3; for increased susceptibility compared with AD3Δ: strain AD3Δ ScErg11 I471T, not corrected for expression
Experimental: as §2, §1

[8] = test system: S. cerevisiae strain AD3Δ ScErg11 Y140H expressing ScLDM6×His Y140H; experiment: Broth microdilution drug susceptibility assay (MIC80), strain AD3Δ ScErg11 Y140H; assay type: cell-based, Saccharomyces cerevisiae; conditions: for MIC80: Saccharomyces cerevisiae, 48 h, 30 °C, pH 6.8, mean (± SEM), n = 3
Experimental: as §2, §1

[9] = test system: C. albicans strain SC5314; experiment: Agarose disk diffusion assay, control strain SC5314; assay type: cell-based, Candida albicans
Experimental: as §3

[10] = target: wild-type and Y140F/H mutants of ScLDM6×His; set-up: method as in earlier work; conditions: no significant differences, ref 5 (supplement; Sagatova et al. 2016); cited from earlier work
[11] = Saccharomyces cerevisiae, strain Y140H + I471T, 48 h, 30 °C, pH 6.8, mean (± SEM), n = 3
[12] = strain AD2Δ, 30 °C, mean (± SEM), n = 3, read-out: MIC80
[13] = strain AD3Δ, 30 °C, mean (± SEM), n = 3, read-out: MIC80
[14] = strain Y140H+I471T, relative expression 0.41
[15] = strain I471T, relative expression 0.51
[16] = strain Y140H, relative expression 0.74

| SMILES | differences between MIC80s for the various cell types tested [2] | MIC80 [3, 11] [µM] | MIC80 [4, 12] [µM] | MIC80 [5, 13] [µM] | effect of ScLDM6×His overexpression on susceptibility to control antifungals [5] | agarose diffusion susceptibility [6] | MIC80 ([7]; strain I471T) [µM] | increased susceptibility compared with AD3Δ [7] | MIC80 ([8]; strain Y140H) [µM] | also measured |
| --- | --- | --- | --- | --- | --- | --- | --- | --- | --- | --- |
| Fc1ccc([C@]2(Cn3cncn3)O[C@H]2c2ccccc2Cl)cc1 (racemic) [epoxiconazole] | – | – | – | – | – | – | – | – | – | resistance conferred by the double mutation Y131F I475T [1]: ~ 100 fold |
| C[C@@H]1[C@H](O)[C@@H](C)/C=C/C=C/C=C/C=C/C=C/C=C/C=C/[C@H](O[C@@H]2O[C@H](C)[C@@H](O)[C@H](N)[C@@H]2O)C[C@@H]2O[C@](O)(C[C@@H](O)C[C@@H](O)[C@H](O)CC[C@@H](O)C[C@@H](O)CC(=O)O[C@H]1C)C[C@H](O)[C@H]2C(=O)O [AMB, amphotericin B] | no statistically significant differences | 2.14 | 2.18 | 2.34 | did not modify susceptibility | mild resistance | 2.26 | not | 2.19 | – |
| OC(Cn1cncn1)(Cn1cncn1)c1ccc(F)cc1F [FLC, fluconazole] | – | 11.5 | – | – | – | resistant | 1.88 | 1.9 fold | 7.4 | effect of Cdr1p inhibitor RC21v3 on azole susceptibility [9]: did not alter the susceptibility; effect of Mdr1 inhibitor MCC1189 on azole susceptibility [9]: did not alter the susceptibility; agarose diffusion susceptibility ([9]; SC5314, no efflux pump inhibitor): susceptible; pKd [10]: ~6.30; MIC80 higher than AD3Δ ScErg11 cells ([3]; strain AD3Δ ScErg11 Y140H I471T, not corrected for expression, p < 0.001): approximately 3 fold; MIC80 higher than cells overexpressing ScLDM6×His Y140H ([3]; strain AD3Δ ScErg11 Y140H I471T, p < 0.001): 1.5 fold; MIC80/Relative Amount of ScLDM6×His [3, 14]: 28.0 µM; fold-resistance based on the relative amount of recombinant enzyme compared with strain AD3Δ [3, 14]: 7.7 ×; MIC80 [4]: 1.33 µM; MIC80/Relative Amount of ScLDM6×His [5]: 3.64 µM; MIC80 [5]: 3.64 µM; effect of Mdr1 inhibitor MCC1189 on azole susceptibility ([6]; MCC1189 at 6 µM in the assay medium): did not alter the susceptibility; effect of Cdr1p inhibitor RC21v3 on azole susceptibility ([6]; RC21v3 at 6 µM in the assay medium): did not alter the susceptibility; MIC80/Relative Amount of ScLDM6×His [7, 15]: 3.69 µM; fold-resistance based on the relative amount of recombinant enzyme compared with strain AD3Δ [7, 15]: 1.0 ×; resistance conferred, relative amount of recombinant ScLDM6×His taken into account ([8]; ScLDM6×His Y140H vs AD3Δ): 2.8 fold; MIC80 higher than strain AD3Δ ScErg11 ([8]; strain AD3Δ ScErg11 Y140H vs AD3Δ, not corrected for expression, p < 0.001): ~ 2 fold; MIC80/Relative Amount of ScLDM6×His [8, 16]: 10 µM; fold-resistance based on the relative amount of recombinant enzyme compared with strain AD3Δ [8, 16]: 2.8 × |
| CCCCCOc1ccc(-c2cc(-c3ccc(C(=O)N[C@H]4C[C@@H](O)[C@@H](O)NC(=O)[C@@H]5[C@@H](O)[C@@H](C)CN5C(=O)[C@H]([C@H](O)CC(N)=O)NC(=O)[C@H]([C@H](O)[C@@H](O)c5ccc(O)c(OS(=O)(=O)O)c5)NC(=O)[C@@H]5C[C@@H](O)CN5C(=O)[C@H]([C@@H](C)O)NC4=O)cc3)no2)cc1 [MCF, micafungin] (X1-[Orn(4R-OH,5R-OH)]T[Hyp][hTyr(3S-OH,4S-OH,3'-OSO3H)][Gln(3R-OH)][Pro(3S-OH,4S-Me)]; lactam 1-C) | no statistically significant differences | – | 0.174 | 0.146 | did not modify susceptibility | – | 0.164 | not | 0.166 | MIC [3, 11]: 0.162 µM |
